Assay: Two-period crossover pharmacokinetics of nalmefene 3 mg IN vs 1.0 mg IM (Example 12)
Settings: human, plasma, plasma; for AUC(0-inf): AUCinf; for Vd/F: Vz/F; for concentration at 0.5 h: 0.500 h
[1] = im, 1 mg, Treatment B: IM 1.0 mg nalmefene hydrochloride, Median, n=68
[2] = im, 1 mg, Treatment B: IM 1.0 mg nalmefene hydrochloride, Geo. Mean, n=68
[3] = im, 1 mg, Treatment B: IM 1.0 mg nalmefene hydrochloride, Mean, n=68
[4] = intramuscular, 1 mg, Mean plasma concentration, Treatment B 1.0 mg IM
[5] = intramuscular, 1 mg, Median plasma concentration, Treatment B 1.0 mg IM
[6] = other: intranasal, 3 mg, GeoMean, Treatment A 3.0 mg IN (Test)
[7] = other: intranasal, 3 mg, Mean plasma concentration, Treatment A 3.0 mg IN
[8] = other: intranasal, 3 mg, Median plasma concentration, Treatment A 3.0 mg IN

Which AUC(0-inf) [1] does the source give for `C=C1CC[C@@]2(O)[C@H]3Cc4ccc(O)c5c4[C@@]2(CCN3CC2CC2)[C@H]1O5` [Nalmefene, 17-cyclopropylmethyl-4,5α-epoxy-6-methylenemorphinan-3,14-diol] here?
Its AUC(0-inf) is 17 ng·h/mL.

What about the AUC(0-t) (im, 1 mg, AUClast, Treatment B: IM 1.0 mg nalmefene hydrochloride, Geo. Mean, n=68) of the same compound?
The AUC(0-t) was 16 ng·h/mL.

And the AUC(0-t) (im, 1 mg, AUClast, Treatment B: IM 1.0 mg nalmefene hydrochloride, Mean, n=68)?
The AUC(0-t) was 16.3 ng·h/mL.

And the AUC(0-t) (im, 1 mg, AUClast, Treatment B: IM 1.0 mg nalmefene hydrochloride, Median, n=68)?
The AUC(0-t) was 15.9 ng·h/mL.

What about the Cmax (im, 1 mg, GeoMean, Treatment B 1.0 mg IM (Ref)) of the same compound?
Its Cmax is 1.5 ng/mL.

What about the Cmax [2] of the same compound?
The Cmax was 1.5 ng/mL.

What about the Cmax [3] of the same compound?
The Cmax was 1.77 ng/mL.

What about the Cmax [1] of the same compound?
The Cmax was 1.52 ng/mL.

What about the half-life (im, 1 mg, T1/2, Treatment B: IM 1.0 mg nalmefene hydrochloride, Geo. Mean, n=68) of the same compound?
Its half-life is 10.4 h.

What about the half-life (im, 1 mg, T1/2, Treatment B: IM 1.0 mg nalmefene hydrochloride, Mean, n=68) of the same compound?
The half-life was 10.6 h.

And the half-life (im, 1 mg, T1/2, Treatment B: IM 1.0 mg nalmefene hydrochloride, Median, n=68)?
The half-life was 9.98 h.

What about the Tmax (im, 1 mg, Tmax, Treatment B: IM 1.0 mg nalmefene hydrochloride, Geo. Mean, n=68) of the same compound?
The Tmax was 0.603 h.

And the Vd/F [2]?
The Vd/F was 894 L.

And the Vd/F [3]?
The Vd/F was 916 L.

What about the concentration at 0 h [4] of the same compound?
The concentration at 0 h was 0.00352 ng/mL.

And the concentration at 0.5 h [4]?
Its concentration at 0.5 h is 1.11 ng/mL.

And the concentration at 2 h [4]?
Its concentration at 2 h is 0.972 ng/mL.

What about the concentration at 3 h [4] of the same compound?
Its concentration at 3 h is 0.896 ng/mL.

And the concentration at 4 h [4]?
Its concentration at 4 h is 0.824 ng/mL.

And the concentration at 6 h [4]?
Its concentration at 6 h is 0.688 ng/mL.

What about the concentration at 8 h [4] of the same compound?
Its concentration at 8 h is 0.67 ng/mL.

What about the concentration at 36 h [4] of the same compound?
Its concentration at 36 h is 0.0968 ng/mL.

What about the concentration at 12 h [4] of the same compound?
The concentration at 12 h was 0.538 ng/mL.

What about the concentration at 18 h [4] of the same compound?
The concentration at 18 h was 0.36 ng/mL.

What about the concentration at 24 h [4] of the same compound?
Its concentration at 24 h is 0.223 ng/mL.

What about the concentration at 48 h [4] of the same compound?
Its concentration at 48 h is 0.0491 ng/mL.

What about the concentration at 0 h [5] of the same compound?
The concentration at 0 h was 0 ng/mL.

And the concentration at 0.5 h [5]?
The concentration at 0.5 h was 0.945 ng/mL.

What about the concentration at 1 h [5] of the same compound?
The concentration at 1 h was 0.829 ng/mL.

And the concentration at 2 h [5]?
The concentration at 2 h was 0.858 ng/mL.

What about the concentration at 3 h [5] of the same compound?
Its concentration at 3 h is 0.818 ng/mL.

And the concentration at 4 h [5]?
The concentration at 4 h was 0.77 ng/mL.

What about the concentration at 6 h [5] of the same compound?
The concentration at 6 h was 0.673 ng/mL.

And the concentration at 8 h [5]?
The concentration at 8 h was 0.629 ng/mL.

And the concentration at 36 h [5]?
Its concentration at 36 h is 0.0915 ng/mL.

And the concentration at 12 h [5]?
The concentration at 12 h was 0.516 ng/mL.

And the concentration at 18 h [5]?
Its concentration at 18 h is 0.341 ng/mL.

And the concentration at 24 h [5]?
Its concentration at 24 h is 0.203 ng/mL.

And the concentration at 48 h [5]?
Its concentration at 48 h is 0.0436 ng/mL.

What about the half-life (other: intranasal (nasal spray), 3 mg, Plasma half-life, 3 mg IN) of the same compound?
The half-life was roughly 11 h.

And the AUC(0-t) (other: intranasal, 3 mg, AUC0-5 min, GeoMean, Treatment A 3.0 mg IN (Test))?
Its AUC(0-t) is 0.06 ng·h/mL.

And the AUC(0-t) (other: intranasal, 3 mg, AUC0-5 min, Treatment A: 3.0 mg nalmefene hydrochloride IN, Geo. Mean, n 66)?
The AUC(0-t) was 0.0599 ng·h/mL.

And the AUC(0-t) (other: intranasal, 3 mg, AUC0-5 min, Treatment A: 3.0 mg nalmefene hydrochloride IN, Median, n 66)?
The AUC(0-t) was 0.0546 ng·h/mL.

What about the AUC(0-t) (other: intranasal, 3 mg, AUC0-10 min, GeoMean, Treatment A 3.0 mg IN (Test)) of the same compound?
Its AUC(0-t) is 0.514 ng·h/mL.

What about the AUC(0-t) (other: intranasal, 3 mg, AUC0-10 min, Treatment A: 3.0 mg nalmefene hydrochloride IN, Geo. Mean, n 66) of the same compound?
The AUC(0-t) was 0.523 ng·h/mL.

What about the AUC(0-t) (other: intranasal, 3 mg, AUC0-10 min, Treatment A: 3.0 mg nalmefene hydrochloride IN, Mean, n 66) of the same compound?
The AUC(0-t) was 0.787 ng·h/mL.

And the AUC(0-t) (other: intranasal, 3 mg, AUC0-10 min, Treatment A: 3.0 mg nalmefene hydrochloride IN, Median, n 66)?
The AUC(0-t) was 0.537 ng·h/mL.

And the AUC(0-t) (other: intranasal, 3 mg, AUC0-15 min, GeoMean, Treatment A 3.0 mg IN (Test))?
Its AUC(0-t) is 1.19 ng·h/mL.

And the AUC(0-t) (other: intranasal, 3 mg, AUC0-15 min, Treatment A: 3.0 mg nalmefene hydrochloride IN, Geo. Mean, n 66)?
The AUC(0-t) was 1.2 ng·h/mL.

And the AUC(0-t) (other: intranasal, 3 mg, AUC0-15 min, Treatment A: 3.0 mg nalmefene hydrochloride IN, Mean, n 66)?
The AUC(0-t) was 1.6 ng·h/mL.

What about the AUC(0-t) (other: intranasal, 3 mg, AUC0-15 min, Treatment A: 3.0 mg nalmefene hydrochloride IN, Median, n 66) of the same compound?
Its AUC(0-t) is 1.19 ng·h/mL.

What about the AUC(0-t) (other: intranasal, 3 mg, AUC0-20 min, GeoMean, Treatment A 3.0 mg IN (Test)) of the same compound?
The AUC(0-t) was 1.87 ng·h/mL.

And the AUC(0-t) (other: intranasal, 3 mg, AUC0-20 min, Treatment A: 3.0 mg nalmefene hydrochloride IN, Geo. Mean, n 66)?
Its AUC(0-t) is 1.89 ng·h/mL.

And the AUC(0-t) (other: intranasal, 3 mg, AUC0-20 min, Treatment A: 3.0 mg nalmefene hydrochloride IN, Mean, n 66)?
Its AUC(0-t) is 2.34 ng·h/mL.

What about the AUC(0-t) (other: intranasal, 3 mg, AUC0-20 min, Treatment A: 3.0 mg nalmefene hydrochloride IN, Median, n 66) of the same compound?
The AUC(0-t) was 1.85 ng·h/mL.

And the AUC(0-t) (other: intranasal, 3 mg, AUC0-30 min, GeoMean, Treatment A 3.0 mg IN (Test))?
Its AUC(0-t) is 3.04 ng·h/mL.

And the AUC(0-t) (other: intranasal, 3 mg, AUC0-30 min, Treatment A: 3.0 mg nalmefene hydrochloride IN, Geo. Mean, n 66)?
Its AUC(0-t) is 3.07 ng·h/mL.

And the AUC(0-t) (other: intranasal, 3 mg, AUC0-30 min, Treatment A: 3.0 mg nalmefene hydrochloride IN, Mean, n 66)?
The AUC(0-t) was 3.55 ng·h/mL.

And the AUC(0-t) (other: intranasal, 3 mg, AUC0-30 min, Treatment A: 3.0 mg nalmefene hydrochloride IN, Median, n 66)?
The AUC(0-t) was 3.04 ng·h/mL.

And the AUC(0-t) (other: intranasal, 3 mg, AUC0-[…], Treatment A: 3.0 mg nalmefene hydrochloride IN, Mean, n 66)?
The AUC(0-t) was 0.0193 ng·h/mL.

And the AUC(0-t) (other: intranasal, 3 mg, AUCLast, GeoMean, Treatment A 3.0 mg IN (Test))?
Its AUC(0-t) is 38.9 ng·h/mL.

And the AUC(0-inf) [6]?
Its AUC(0-inf) is 40.3 ng·h/mL.

And the Cmax [6]?
Its Cmax is 10.3 ng/mL.

What about the concentration at 0 h [7] of the same compound?
Its concentration at 0 h is 0.00146 ng/mL.

What about the concentration at 0.5 h [7] of the same compound?
The concentration at 0.5 h was 6.25 ng/mL.

And the concentration at 1 h [7]?
Its concentration at 1 h is 4.64 ng/mL.

What about the concentration at 2 h [7] of the same compound?
The concentration at 2 h was 4.03 ng/mL.

What about the concentration at 3 h [7] of the same compound?
The concentration at 3 h was 3.17 ng/mL.

What about the concentration at 4 h [7] of the same compound?
Its concentration at 4 h is 2.52 ng/mL.

What about the concentration at 6 h [7] of the same compound?
The concentration at 6 h was 1.69 ng/mL.

And the concentration at 8 h [7]?
The concentration at 8 h was 1.23 ng/mL.

What about the concentration at 36 h [7] of the same compound?
The concentration at 36 h was 0.171 ng/mL.

What about the concentration at 12 h [7] of the same compound?
Its concentration at 12 h is 0.87 ng/mL.

What about the concentration at 18 h [7] of the same compound?
The concentration at 18 h was 0.529 ng/mL.

And the concentration at 24 h [7]?
The concentration at 24 h was 0.366 ng/mL.

And the concentration at 48 h [7]?
The concentration at 48 h was 0.0875 ng/mL.

And the concentration at 0 h [8]?
Its concentration at 0 h is 0 ng/mL.

What about the concentration at 0.5 h [8] of the same compound?
The concentration at 0.5 h was 5.86 ng/mL.

And the concentration at 1 h [8]?
The concentration at 1 h was 4.68 ng/mL.

And the concentration at 2 h [8]?
The concentration at 2 h was 3.99 ng/mL.

What about the concentration at 3 h [8] of the same compound?
The concentration at 3 h was 3.13 ng/mL.

And the concentration at 4 h [8]?
The concentration at 4 h was 2.49 ng/mL.

And the concentration at 6 h [8]?
Its concentration at 6 h is 1.65 ng/mL.

What about the concentration at 8 h [8] of the same compound?
The concentration at 8 h was 1.18 ng/mL.

What about the concentration at 36 h [8] of the same compound?
Its concentration at 36 h is 0.165 ng/mL.

What about the concentration at 12 h [8] of the same compound?
The concentration at 12 h was 0.832 ng/mL.

And the concentration at 18 h [8]?
The concentration at 18 h was 0.518 ng/mL.

And the concentration at 24 h [8]?
Its concentration at 24 h is 0.341 ng/mL.

And the concentration at 48 h [8]?
Its concentration at 48 h is 0.0843 ng/mL.
